Measurements published in US7803557B2, “Methods for identification of eicosapentaenoic acid analogs using anti-inflammatory receptors” (The Brigham and Women's Hospital, Inc., priority 2003, dated 2010).
Where two headings read alike, the source gives them in different places.

Experiments:
[1] = system: leukocyte infiltration in zymosan-induced peritonitis; assay: Zymosan induced peritonitis (leukocyte infiltration); assay type: in vivo, mouse; conditions: for inhibition of leukocyte recruitment: 100 ng/mouse intravenously, 2 h
Procedure: For peritonitis, 100 ng/mouse of Resolvin E1 or related structures was injected into tail vein and followed by 1 ml zymosan A (1 mg/ml) into the peritoneum. Peritoneal lavages were collected at 2 h and cells were enumerated.
18R-HEPE (100 ng), Resolvin E1 (100 ng), or Indomethacin (100 ng) was injected intravenously into mouse tails followed by zymosan A into the peritoneum. Mice were sacrificed, and peritoneal lavages were collected (2 h) and cells enumerated (n=3).

Reso ER1 [2] = molecular target: T1, Reso ER1 (Homo sapiens, UniProt Q99788); assay: [35S]-GTPgS binding assay, membranes expressing Reso ER1; assay type: biochemical; set-up: expressed in transfected cells; conditions: isolated membranes from cells expressing Reso ER1; concentration-dependent
T1 sequence (Q99788 1-373): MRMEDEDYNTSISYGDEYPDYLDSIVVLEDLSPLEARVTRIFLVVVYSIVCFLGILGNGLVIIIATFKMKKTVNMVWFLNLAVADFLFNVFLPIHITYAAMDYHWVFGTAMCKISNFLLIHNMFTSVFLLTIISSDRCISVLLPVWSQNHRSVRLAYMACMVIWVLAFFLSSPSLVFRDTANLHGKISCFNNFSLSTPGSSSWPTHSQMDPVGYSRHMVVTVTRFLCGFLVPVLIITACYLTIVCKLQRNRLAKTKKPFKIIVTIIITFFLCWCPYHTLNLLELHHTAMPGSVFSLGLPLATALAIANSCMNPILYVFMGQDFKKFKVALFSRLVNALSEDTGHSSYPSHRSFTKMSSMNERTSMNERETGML
Procedure: HEK293 cells stably expressing human Reso ER1 were homogenized in ice-cold TED buffer (20 mM Tris-HCl pH7.5/1 mM EDTA/5 mM MgCl2/1 mM DTT). Membrane fraction ([…]) was incubated in […] of GTP-binding buffer (50 mM Hepes, pH7.5/100 mM NaCl/1 mM EDTA/5 mM MgCl2/1 mM DTT) containing 0.1 nM [^35S]-GTPgS (>1000 Ci/mmol, Amersham) and […] for 30 min at 30° C. The bound and unbound [35S]-GTPgS was separated by rapid filtration through GF/C filters, and counted by liquid scintillation. Nonspecific binding was determined in the presence of […] unlabeled GTPgS. Basal [^35S]-GTP-gS binding was 81.6+1.5 cpm/mg protein.

[3] = system: mock-transfected HEK293 cells; assay: MAP kinase (ERK) activation in mock-transfected HEK293 cells; assay type: cell-based, human; conditions: 100 nM
Procedure: (§1) MAP kinase activation in monocytes and HEK293 cells after treatment with 100 nM of each compound was determined. After incubations, cells were lysed in cold lysis buffer (50 mM Tris-HCl, pH 8.0, 150 mM NaCl, 0.5 mM EDTA, 1.0% NP-40, 0.5% sodium deoxycolate, 10 mM NaF, 10 mM sodium pyrophosphate) containing protease inhibitor cocktail (Sigma). […] of protein was separated on SDS-PAGE and immunoblot was performed using anti-phospho-p44/42 MAP kinase (Cell Signaling) and anti-ERK (Santa Cruz) antibodies. For PTX treatment, HEK-Reso ER1 cells were incubated with or without PTX (200 ng/ml) for 24 h at 37° C. and ERK activation was monitored by addition of Resolvin E1 (100 nM) for 5 min.

[4] = system: human peripheral blood monocytes; assay: Calcium mobilization in human peripheral blood monocytes; assay type: cell-based
[5] = LC-MS/MS analysis of Resolvin E1 in human plasma; assay type: in vivo; conditions: oral, healthy human volunteers given EPA and aspirin, 6 donors
Procedure: Human plasma samples were collected at 4 hours after oral administration of fish oil supplement (Fish Oil Concentrate, Walgreens) containing EPA (1 g) and DHA (0.7 g) followed by aspirin (160 mg) at 3 h in six healthy volunteers. Plasma samples were extracted by C18 solid phase extraction with d4-LTB4 (Cascade) as internal standard for LC-MS/MS analysis (7) using a Finnigan LCQ liquid chlomatography ion trap tandem mass spectrometer equipped with a LUNA C18-2 (100×2 mm×[…]) column and UV diode array detector using mobile phase (methanol:water:acetate at 65:35:0.01) from 0 to 8 min, ramped to methanol 8 to 30 min, with a 0.2 ml/min flow rate.

[6] = system: peripheral blood monocytes; assay: MAP kinase (ERK) activation in peripheral blood monocytes; assay type: cell-based, human; conditions: 100 nM
Procedure: as §1

splenic CD11c+ DCs = assay: In vivo activation of spleen dendritic cells with pathogen extract (STAg); set-up: species or system mouse; DC migration into T cell areas of the spleen: dose or concentration left out as unconfirmed; conditions: STAg challenge
Procedure: (§2) Experiments were performed essentially as in (19). STAg was prepared from sonicated T. gondii (RH strain) tachzoytes. For isolated DC experiments, 70-85% CD11c positive DCs were isolated from spleen. CD11c+DC suspensions (1.0×10^6 cells/ml) were spread into 96-well plates and incubated for 24 h with Resolvin E1 before the addition of STAg ([…]). After overnight culture, supernatants were collected and IL-12p40 was measured with a sandwich ELISA. For in vivo treatments, C57BL/6 mice (n=3 per group) were injected intravenously with 100 ng Resolvin E1. After 18 h the animals were challenged intraperitoneally with PBS (0.2 ml/mouse), STAg (5 mg/ml) and sacrificed after an additional 6 h. CD11c+DCs were isolated from spleen and IL12-p40 secretion was measured at 24 h. For DC migration, Splenic frozen section from mice treated as above but given […] of Resolvin E1 or vehicle were stained for CD11c and counterstained with hematoxylin.

[7] = system: leukocyte infiltration in TNF-a induced dorsal air pouch; assay: Murine dorsal air-pouch model (TNF-a induced leukocyte infiltration); assay type: in vivo, mouse; set-up: inhibition of leukocyte recruitment: dose or concentration left out as unconfirmed
Procedure: Dorsal air pouches were raised on male FvB mice (6-8 wk) by injecting 3 ml of sterile air subcutaneously on days 0 and 3. On day 6, 100 ng/mouse of compounds were injected into tail vein. Inflammation in the air-pouch was induced by intrapouch injection of mouse recombinant TNF-a (100 ng/pouch), and pouch lavages were collected at 4 h and cells were enumerated.

Reso ER1 [8] = molecular target: T1, Reso ER1; assay: NF-kB reporter gene assay, HEK293 cells transfected with Reso ER1; assay type: cell-based; set-up: expressed in transfected cells; host or cells: HEK293, transient transfection with pcDNA3-Reso ER1
Procedure: HEK293 cells (1.0′10^5 cells) were transiently transfected with 50 ng pNF-kB-luciferase (Stratagene), 500 ng of either pcDNA3 or pcDNA3-GPCRs and the internal standard pRL-TK (Promega) using Superfect transfection reagent (Qiagen). After 24 h, cells were exposed to the test compounds for 30 min, stimulated with recombinant human TNF-a (1.0 ng/ml, BD Pharmingen) for 5 h. Luciferase activity was measured by the Dual-Luciferase reporter assay system (Promega). Basal induction of luciferase activity by TNF-a was >150-fold in this system. Efficient expression of GPCRs to the cell surface was observed by immunostaining using HA-tagged GPCR constructs. For PTX treatment, HEK293 cells were treated with PTX (200 ng/ml) for 24 h before stimulation.
(§3) FIG. 4d illustrate effects of PTX on Resolvin E1 induced activation and NF-kB inhibition. In—(a) HEK-hReso ER1 cells were incubated with or without PTX (200 ng/ml) for 24 h at 37 C and ERK activation was monitored by addition of Resolvin E1 (100 nM) for 5 min. In (b) HEK293 cells were transiently transfected with pcDNA-hReso ER1, pNF-kB-luciferase and pRL-TK. After 24 h with or without PTX (200 ng/ml), cells were exposed to Resolvin E1 (50 nM) for 30 min, stimulated with TNF-a (1.0 ng/ml) for 5 h, and luciferase activity was measured.

HEK293-Reso ER1 cells = assay: MAP kinase (ERK) activation in HEK293-Reso ER1 cells; assay type: cell-based, human
Procedure: as §1, §3

[9] = molecular target: recombinant LTB4 receptor BLT 1 (Homo sapiens, UniProt Q15722); conditions: higher concentrations; reference (7); cited from earlier work
Chain of recombinant LTB4 receptor BLT 1 (Q15722 whole entry): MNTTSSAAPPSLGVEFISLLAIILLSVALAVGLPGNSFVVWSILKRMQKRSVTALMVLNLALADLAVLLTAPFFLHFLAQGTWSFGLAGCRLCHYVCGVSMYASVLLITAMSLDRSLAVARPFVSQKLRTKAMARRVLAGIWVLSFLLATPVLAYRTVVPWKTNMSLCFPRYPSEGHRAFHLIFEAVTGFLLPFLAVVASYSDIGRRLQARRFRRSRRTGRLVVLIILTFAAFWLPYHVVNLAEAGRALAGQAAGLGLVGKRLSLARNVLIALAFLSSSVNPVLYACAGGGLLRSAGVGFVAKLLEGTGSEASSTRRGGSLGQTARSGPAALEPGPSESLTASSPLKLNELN

[10] = system: HEK-Reso ER1 stable transformants; assay: Calcium mobilization in HEK-Reso ER1 stable transformants; assay type: cell-based, human
mouse splenic CD11c+ DCs = assay: IL-12p40 production by isolated splenic CD11c+ DCs stimulated with STAg; assay type: cell-based
Procedure: as §2
Chemically synthesized siRNA for mouse Reso ER1 (5′-[…]dTdT-3′) and Non-specific control IX siRNA (5′-[…]-3′) were from Dharmacon Research. Spleen cells (1.0×10^6 cells/ml) were transfected using Chariot (Active Motif) following manufacturers' instructions. Briefly, siRNA was mixed with Chariot transfection reagent and incubated at room temperature for 30 minutes. […]

[11] = system: leukocyte infiltration in TNF-a induced dorsal air pouch; conditions: 1.0 mg/mouse, reference (9); cited from earlier work

## CCC(O)C=CC=CCC(O)C=CC=CC=CC(O)CCCC(=O)O (single isomer, unassigned) [6-trans,14-trans isomer]
[1]; versus Resolvin E1
  reduced potency for reducing leukocyte infiltration: ~70%

## CC[C@@H](O)/C=C/C=C\C[C@@H](O)/C=C/C=C/C=C\[C@@H](O)CCCC(=O)O [Resolvin E1, 5S,12R,18R-trihydroxy-6Z,8E,10E,14Z,16E-eicosapentaenoic acid]
Reso ER1 [2]
  specific [35S]-GTPgS binding: increased selectively
[3]
  phosphorylation of ERK MAP kinase: not in mock-transfected HEK293 cells
[4]; 100 nM, data not shown, cell type not restated
  inhibition of calcium mobilization by 100 nM LTB4: did not inhibit calcium mobilization
[4]; human peripheral blood monocytes
  calcium mobilization: did not evoke a calcium mobilization
[5]
  concentration at 4 h: 0.1 to 0.4 ng/mL
[6]
  phosphorylation of ERK MAP kinase: increased phosphoryation
[1]
  inhibition of leukocyte recruitment: 50-60%
Splenic CD11c+ DCs; 100 ng intravenously, IL-12p40 from splenic CD11c+ DCs
  IL-12 production in vivo: blocked IL-12 production
Splenic CD11c+ DCs; Resolvin E1, CD11c staining
  DC migration into T cell areas of the spleen: blocked
[7]; 100 ng/mouse, tail vein, TNF-a induced dorsal air pouch
  inhibition of leukocyte infiltration: 50-70%
Reso ER1 [8]; read-out: EC50, inhibition of TNF-a induced NF-kB activation
  EC50: ~1 nM
HEK293-Reso ER1 cells; 100 nM, HEK293-Reso ER1 cells
  phosphorylation of ERK MAP kinase: increased phosphoryation
HEK293-Reso ER1 cells; PTX 200 ng/ml 24 h, Resolvin E1 100 nM, 5 min
  Resolvin E1 dependent ERK activation after pertussis toxin: abolished
[9]
  concentration at which it interacts with recombinant BLT1: ~0.5 mM
[10]
  calcium mobilization: did not evoke a calcium mobilization
Mouse splenic CD11c+ DCs; isolated mouse splenic CD11c+ DCs, within the nanomolar range
  IL-12p40 production by STAg: markedly inhibited
Mouse splenic CD11c+ DCs; spleen cells transfected with siRNA, STAg stimulation
  action in regulating IL-12 production from DCs after siRNA specific for mouse Reso ER1: eliminated

## COc1ccc2c(c1)c(CC(=O)O)c(C)n2C(=O)c1ccc(Cl)cc1 [indomethacin, reference compound]
[1]
  inhibition of leukocyte recruitment: 25%

## CC(=O)Oc1ccccc1C(=O)O [aspirin, reference compound]
Reso ER1 [8]; HEK293, 1 mM, read-out: non-receptor dependent inhibition of NF-kB
  inhibition at 1000 µM: 26.2%
[11]
  inhibition of leukocyte recruitment: 70%

## CC[C@H](O)/C=C/C=C\C[C@@H](O)/C=C/C=C/C=C\[C@@H](O)CCCC(=O)O (single isomer, unassigned) [18S isomer]
[1]
  activity compared with native Resolvin E1 containing 18R: essentially equivalent activity

## C[C@@H]1C[C@H]2[C@@H]3CCC4=CC(=O)C=C[C@]4(C)[C@@]3(F)[C@@H](O)C[C@]2(C)[C@@]1(O)C(=O)CO [dexamethasone, reference compound]
[7]; local administration, dorsal air pouch
  inhibition of leukocyte recruitment: 60%
